For one compound, Activity results are on record in ChEMBL document CHEMBL6153099, “Fatuamide A, a Hybrid PKS/NRPS Metallophore from a Leptolyngbya sp. Marine Cyanobacterium Collected in American Samoa” (J Nat Prod, 2025).

Experiment [1] has as its system NCI-H460. The experiment is described as follows: Cytotoxicity against human NCI-H460 cells at 2 to 60000 nM incubated for 48 hrs by MTT assay. In kind it is functional, cell-based. To be noted: dose 2-60000 nM. (In general: Tetrazolium assays rely on reduction of a dye to a coloured formazan, in cell work by metabolically active cells.)
Experiment [2] has as its system RAW264.7. The experiment is described as follows: Antiinflammatory activity in LPS-induced mouse RAW264.7 cells assessed as reduction in NO production at 10 to 30 microg/ml preincubated for 24 hrs by Griess reagent based assay. In kind it is functional, cell-based. The conditions noted are these: dose 10-30 µg/ml. (In general: Griess reagent forms a coloured azo dye with nitrite.)

Activity calls are given as the source filed them. No cut-off for these calls is given here.

Regarding `C[C@H](C[C@@H](C)CCC(=O)N[C@@H](Cc1ccccc1)[C@H](O)C[C@H](O)CC(=O)N[C@@H](Cc1ccccc1)[C@H](O)CC(=O)NCC(=O)O)C[C@@H]1CSC(c2ccccc2O)=N1`, in experiment [1], the result was Active. Besides, in experiment [2], the result was inactive.
